From patent US20250352603A1, “VALERIAN COMPOSITION FOR SLEEP MANAGEMENT” (OMNIACTIVE HEALTH TECHNOLOGIES LIMITED, priority 2022, published 2025)

Tests used:
Type in all cases: in vivo, mice
GluA1, GluN2A, GluN1 = assay: Western blot of brain glutamate receptors; settings: CM: caffeine then 2 mg/kg i.p.; vs C group
Description: (§1) Working solutions of caffeine, melatonin, and valerian were prepared on a daily basis and administered intraperitoneally (i.p.). Based on the previous studies caffeine-induced insomnia is dose-dependent with 7.5 mg/kg i.p. caffeine maintaining wakefulness for at least 2 h. Electrical activity of the brain was monitored for 90 minutes following the caffeine injection and spike frequency/spike amplitude analysis was performed via the Labchart 7.3.3 program. Ninety (90) minutes after the caffeine injection, animals were deeply anesthetized with 4% isofluorane (30% O2, remainder N2O). Brains were rapidly removed, frozen on dry ice and stored at −80° C. for further analysis.
(§2) Protein concentrations were determined using Western blot analysis. 50 μg of protein was electrophoresed on 4-15% Tris-Glycine polyacrylamide gels and transferred to Immobilon-P PVDF membranes, blocked for 1 h in 5% skim milk and incubated overnight at 4° C. with either GABAAR2, GABAB R1, GABAB-R2, 5H-T1A, GluA1, GluN1, GluN2 A, Bcl-2, Bax, and Caspase-3. Membranes were then incubated with horseradish peroxidase (HRP) conjugated IgG secondary antibody. Bands were quantified using Image software and normalized to actin as a loading control.

[1] = test system: brain tissue MDA, SOD, CAT, GPx; assay: Brain oxidative stress markers (MDA by HPLC; SOD, CAT, GPx by ELISA kits); settings: CM: caffeine then 2 mg/kg i.p.; vs C group
Description: as §1
(§3) Serum melatonin, serotonin, and dopamine was measured by ELISA kits. Brain levels of MDA was measured by HPLC. Brain activities of SOD, CAT and GPHx was measured using ELISA kits.

[2] = test system: GABAAR2, GABAB R1, GABAB R2, 5-HT1A; assay: Western blot of brain GABAergic and serotonergic receptors; settings: CM: caffeine then 2 mg/kg i.p.; vs C group
Description: as §1, §2

Bax, Bcl-2, Caspase-3 = assay: Western blot of brain Bax, Bcl-2 and Caspase-3; settings: CM: caffeine then 2 mg/kg i.p.; vs C group
Description: as §1, §2

[3] = test system: serum serotonin, dopamine, melatonin; assay: Serum melatonin, serotonin and dopamine by ELISA kits; settings: CM: caffeine then 2 mg/kg i.p.
Description: as §1, §3

**Q.** For COc1ccc2[nH]cc(CCNC(C)=O)c2c1 [Melatonin], which “brain GluA1 receptors” value (GluA1, GluN2A, GluN1) is on record?
**A.** The value was “significant increase”.

**Q.** What about the “brain GluN1 receptors” value (GluA1, GluN2A, GluN1) of the same compound?
**A.** Its value is “significant increase”.

**Q.** What about the “brain GluN2A receptors” value (GluA1, GluN2A, GluN1) of the same compound?
**A.** The value was “significant increase”.

**Q.** And the “brain CAT” value [1]?
**A.** The value was “significant increase”.

**Q.** And the “brain GPx” value [1]?
**A.** Its value is “significant increase”.

**Q.** What about the “brain MDA levels” value [1] of the same compound?
**A.** The value was “significant reduction”.

**Q.** And the “brain SOD” value [1]?
**A.** The value was “significant increase”.

**Q.** And the “brain 5-HT1A levels” value [2]?
**A.** The value was “significantly increased”.

**Q.** What about the “brain GABAB R1” value [2] of the same compound?
**A.** The value was “significant increase”.

**Q.** What about the “brain Bax” value (Bax, Bcl-2, Caspase-3) of the same compound?
**A.** The value was “significant increase”.

**Q.** What about the “brain Bcl-2” value (Bax, Bcl-2, Caspase-3) of the same compound?
**A.** The value was “significant decrease”.

**Q.** And the “brain Caspase-3” value (Bax, Bcl-2, Caspase-3)?
**A.** The value was “significant increase”.

**Q.** What about the serum dopamine levels ([3]; vs C group) of the same compound?
**A.** The serum dopamine levels was “significant increase”.

**Q.** What about the serum serotonin levels ([3]; vs C group) of the same compound?
**A.** The serum serotonin levels was “significant increase”.

**Q.** What about the “melatonin levels in serum” value ([3]; vs all the other groups) of the same compound?
**A.** Its value is “significantly higher”.
